Compound: COC1=CC=C(C=C1)COC2=C(C=C(C=C2)CC3=CN=C(N=C3N)N)OC [GW-2580] + O=C(CCCCCCC(=O)Nc1ccccc1)NO [Vorinostat] (partner 1 µM)
Test: relative viability (nuclei count vs DMSO), 5 days (fraction); higher = more cells survive
Details: first compound 0.08 µM
In short: (§1)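 Values are medians from duplicate plates. Each reflects relative viability, defined as the nuclei count of treated wells over that of vehicle wells. Lung cancer cell lines in 1536-well plates were pin-tool dosed one day after seeding with one drug alone or with a fixed anchor-drug dose plus five library-drug doses (not always all listed) in √10 steps, then fixed, stained and imaged at 4× after 5 days.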

First: NCI-H2342
Second: NCI-H727
The relative viability of the first is lower: 0.711 for the first, 1.09 for the second.

First: NCI-H1650
Second: NCI-H1993
The relative viability of the first is lower: 0.541 for the first, 0.993 for the second.

Going from SW 1573 to NCI-H838, the relative viability falls from 0.968 to 0.789.

First: LCLC-103H
Second: NCI-H520
The relative viability of the first is lower: 0.753 for the first, 0.935 for the second.

First: NCI-H2126
Second: EMC-BAC-2
The relative viability of the first is higher: 0.817 for the first, 0.418 for the second.

First: NCI-H2085
Second: HCC-366
The relative viability of the first is higher: 0.786 for the first, 0.344 for the second.

Going from NCI-H1666 to NCI-H596, the relative viability falls from 1.08 to 0.591.

First: LK-2
Second: NCI-H2087
The relative viability of the first is lower: 0.242 for the first, 0.802 for the second.

First: NCI-H1648
Second: SK-MES-1
The relative viability of the first is lower: 0.761 for the first, 1.31 for the second.

Compared with H3255, COR-L23 is lower in relative viability: 0.802 for the first, 0.495 for the second.

Going from COR-L 105 to LOU-NH91, the relative viability rises from 0.833 to 0.925.

First: ChaGo-K-1
Second: HCC-44
The relative viability of the first is lower: 0.743 for the first, 1.13 for the second.

First: NCI-H522
Second: HCC-78
The relative viability of the first is higher: 0.976 for the first, 0.461 for the second.

Going from NCI-H2009 to NCI-H661, the relative viability rises from 0.774 to 0.86.

First: SK-LU-1
Second: NCI-H2228
The relative viability of the first is higher: 0.924 for the first, 0.605 for the second.

With NCI-H2023 the relative viability was 0.812.

Same assay, conditions: first compound 0.8 µM

Going from NCI-H2342 to NCI-H727, the relative viability rises from 0.75 to 1.26.

Compared with NCI-H1650, NCI-H1993 is lower in relative viability: 0.901 for the first, 0.887 for the second.

Going from SW 1573 to NCI-H838, the relative viability rises from 0.771 to 0.782.

First: LCLC-103H
Second: NCI-H520
The relative viability of the first is higher: 0.851 for the first, 0.651 for the second.

Going from NCI-H2126 to EMC-BAC-2, the relative viability falls from 0.794 to 0.733.

Going from NCI-H2085 to HCC-366, the relative viability falls from 0.856 to 0.395.

Going from NCI-H1666 to NCI-H596, the relative viability falls from 1.16 to 0.595.

First: LK-2
Second: NCI-H2087
The relative viability of the first is lower: 0.28 for the first, 0.807 for the second.

Compared with SK-MES-1, H3255 is lower in relative viability: 1.33 for the first, 0.875 for the second.

First: COR-L23
Second: COR-L 105
The relative viability of the first is lower: 0.516 for the first, 0.926 for the second.

First: IA-LM
Second: LOU-NH91
The relative viability of the first is higher: 1.21 for the first, 1.03 for the second.

Going from ChaGo-K-1 to HCC-44, the relative viability rises from 0.726 to 1.08.

Compared with NCI-H522, HCC-78 is lower in relative viability: 0.862 for the first, 0.441 for the second.

First: NCI-H2009
Second: NCI-H661
The relative viability of the first is higher: 0.834 for the first, 0.801 for the second.

Compared with SK-LU-1, NCI-H2228 is lower in relative viability: 0.918 for the first, 0.759 for the second.

With NCI-H2023 the relative viability was 0.882.

Same assay, conditions: first compound 2.53 µM

First: NCI-H2342
Second: NCI-H727
The relative viability of the first is lower: 0.625 for the first, 1.25 for the second.

First: NCI-H1650
Second: NCI-H1993
The relative viability of the first is lower: 0.457 for the first, 0.661 for the second.

First: SW 1573
Second: NCI-H838
The relative viability of the first is lower: 0.626 for the first, 0.691 for the second.

First: LCLC-103H
Second: NCI-H520
The relative viability of the first is higher: 0.791 for the first, 0.768 for the second.

First: NCI-H2126
Second: NCI-H2085
The relative viability of the first is higher: 0.749 for the first, 0.735 for the second.

First: HCC-366
Second: NCI-H1666
The relative viability of the first is lower: 0.342 for the first, 0.94 for the second.

Compared with NCI-H596, LK-2 is lower in relative viability: 0.495 for the first, 0.205 for the second.

First: NCI-H2087
Second: NCI-H1648
The relative viability of the first is higher: 0.696 for the first, 0.541 for the second.

Compared with SK-MES-1, H3255 is lower in relative viability: 0.993 for the first, 0.75 for the second.

Going from COR-L23 to COR-L 105, the relative viability rises from 0.426 to 0.561.

Going from IA-LM to LOU-NH91, the relative viability falls from 0.851 to 0.801.

First: ChaGo-K-1
Second: HCC-44
The relative viability of the first is lower: 0.768 for the first, 1.19 for the second.

Compared with NCI-H522, HCC-78 is lower in relative viability: 0.861 for the first, 0.389 for the second.

Going from NCI-H2009 to NCI-H661, the relative viability rises from 0.702 to 0.767.

Compared with SK-LU-1, NCI-H2228 is lower in relative viability: 0.648 for the first, 0.539 for the second.

With NCI-H2023 the relative viability was 0.598.

Same assay, conditions: first compound 8 µM

First: NCI-H2342
Second: NCI-H727
The relative viability of the first is lower: 0.751 for the first, 1.26 for the second.

First: NCI-H1650
Second: NCI-H1993
The relative viability of the first is lower: 0.586 for the first, 0.868 for the second.

Compared with SW 1573, NCI-H838 is higher in relative viability: 0.746 for the first, 0.771 for the second.

First: LCLC-103H
Second: NCI-H520
The relative viability of the first is lower: 0.671 for the first, 0.682 for the second.

Going from NCI-H2126 to EMC-BAC-2, the relative viability falls from 0.814 to 0.376.

Compared with NCI-H2085, HCC-366 is lower in relative viability: 0.821 for the first, 0.357 for the second.

First: NCI-H1666
Second: NCI-H596
The relative viability of the first is higher: 0.967 for the first, 0.564 for the second.

First: LK-2
Second: NCI-H2087
The relative viability of the first is lower: 0.311 for the first, 0.715 for the second.

Compared with NCI-H1648, SK-MES-1 is higher in relative viability: 0.496 for the first, 1.16 for the second.

Compared with H3255, COR-L23 is lower in relative viability: 0.771 for the first, 0.524 for the second.

Compared with COR-L 105, IA-LM is higher in relative viability: 0.697 for the first, 1.07 for the second.

Going from LOU-NH91 to ChaGo-K-1, the relative viability falls from 0.943 to 0.794.

Going from HCC-44 to NCI-H522, the relative viability falls from 1.1 to 0.986.

Going from HCC-78 to NCI-H2009, the relative viability rises from 0.39 to 0.679.

Compared with NCI-H661, SK-LU-1 is higher in relative viability: 0.632 for the first, 0.734 for the second.

First: NCI-H2228
Second: NCI-H2023
The relative viability of the first is lower: 0.509 for the first, 0.762 for the second.

Compound: COC1=CC=C(C=C1)COC2=C(C=C(C=C2)CC3=CN=C(N=C3N)N)OC [GW-2580] + CCNC(=O)c1noc(-c2cc(C(C)C)c(O)cc2O)c1-c1ccc(CN2CCOCC2)cc1 [Luminespib] (partner 0.01 µM)
Test: as above
Details: first compound 0.08 µM
In short: as §1

First: NCI-H2342
Second: NCI-H1623
The relative viability of the first is higher: 0.788 for the first, 0.382 for the second.

Compared with NCI-H1650, NCI-H1993 is higher in relative viability: 0.195 for the first, 0.853 for the second.

First: SW 1573
Second: NCI-H838
The relative viability of the first is lower: 0.257 for the first, 0.266 for the second.

Compared with LCLC-103H, NCI-H520 is lower in relative viability: 1.01 for the first, 0.224 for the second.

First: NCI-H2126
Second: EMC-BAC-2
The relative viability of the first is lower: 0.96 for the first, 1.27 for the second.

Compared with NCI-H2085, NCI-H1666 is higher in relative viability: 0.529 for the first, 0.984 for the second.

Going from NCI-H596 to LK-2, the relative viability falls from 0.987 to 0.16.

Going from NCI-H2087 to SK-MES-1, the relative viability rises from 0.133 to 0.869.

Compared with H3255, COR-L23 is higher in relative viability: 0.825 for the first, 0.875 for the second.

Compared with COR-L 105, LOU-NH91 is lower in relative viability: 0.63 for the first, 0.413 for the second.

First: ChaGo-K-1
Second: HCC-44
The relative viability of the first is lower: 0.757 for the first, 1.14 for the second.

Going from NCI-H522 to NCI-H2009, the relative viability falls from 1.22 to 1.15.

First: NCI-H661
Second: SK-LU-1
The relative viability of the first is higher: 0.978 for the first, 0.206 for the second.

From the supplement of paper PMC10307832
